Test results published in patent US20250179022A1, “COMPOUND USED AS TYK2 INHIBITOR, PREPARATION METHOD THEREFOR, AND PHARMACEUTICAL USE THEREOF” (SHANGHAI ZHIGEN PHARMACEUTICAL & TECHNOLOGY CO. LTD., priority 2022, published 2025).

Assays:
Type in all cases: cell-based
TYK2 [1] = target: T1, TYK2 (Homo sapiens, UniProt P29597, E957D); assay: TYK2 kinase activity inhibition assay (Ba/F3-FL-TYK2-E957D cell proliferation, CellTiter-Glo); settings: 72 h
T1 construct: host or cells: Ba/F3 (murine B lymphocytes)
T1 sequence (P29597 whole entry E957D): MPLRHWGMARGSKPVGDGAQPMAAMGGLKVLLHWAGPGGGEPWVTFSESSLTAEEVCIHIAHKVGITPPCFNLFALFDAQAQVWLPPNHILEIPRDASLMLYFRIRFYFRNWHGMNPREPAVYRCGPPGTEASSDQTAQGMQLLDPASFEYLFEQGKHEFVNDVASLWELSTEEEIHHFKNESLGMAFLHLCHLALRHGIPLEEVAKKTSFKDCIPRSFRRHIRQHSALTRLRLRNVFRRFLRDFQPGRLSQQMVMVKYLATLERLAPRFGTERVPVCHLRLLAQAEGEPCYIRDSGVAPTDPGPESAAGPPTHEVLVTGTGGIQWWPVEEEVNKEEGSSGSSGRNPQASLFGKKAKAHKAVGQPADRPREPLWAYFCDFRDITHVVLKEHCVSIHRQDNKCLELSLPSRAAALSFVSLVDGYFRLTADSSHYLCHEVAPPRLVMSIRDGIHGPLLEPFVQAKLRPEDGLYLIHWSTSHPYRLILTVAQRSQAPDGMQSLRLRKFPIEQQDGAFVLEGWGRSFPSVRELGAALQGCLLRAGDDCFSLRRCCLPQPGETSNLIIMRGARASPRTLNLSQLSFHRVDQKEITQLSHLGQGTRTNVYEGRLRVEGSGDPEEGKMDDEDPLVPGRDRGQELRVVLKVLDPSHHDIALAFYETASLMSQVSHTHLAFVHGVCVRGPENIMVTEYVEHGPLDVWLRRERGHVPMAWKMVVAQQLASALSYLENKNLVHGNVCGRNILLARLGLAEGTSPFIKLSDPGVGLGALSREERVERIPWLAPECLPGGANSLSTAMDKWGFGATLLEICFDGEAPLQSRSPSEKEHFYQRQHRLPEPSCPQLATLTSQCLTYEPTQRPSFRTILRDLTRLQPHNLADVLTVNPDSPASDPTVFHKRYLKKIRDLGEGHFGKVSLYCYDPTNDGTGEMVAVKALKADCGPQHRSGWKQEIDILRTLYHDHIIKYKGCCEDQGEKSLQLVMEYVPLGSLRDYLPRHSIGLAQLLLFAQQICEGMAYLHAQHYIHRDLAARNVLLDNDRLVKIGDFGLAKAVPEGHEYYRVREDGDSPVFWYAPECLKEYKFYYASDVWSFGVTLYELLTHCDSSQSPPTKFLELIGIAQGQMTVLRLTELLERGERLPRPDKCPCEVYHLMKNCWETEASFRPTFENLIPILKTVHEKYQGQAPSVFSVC
Description: The TYK2 kinase gene was introduced into wild-type murine-derived B lymphocytes (BaF3) to construct the Ba/F3-FL-TYK2-E957D stable cell line.
In this experiment, the inhibitory effect of the compounds on the proliferation of Ba/F3-FL-TYK2-E957D cells were tested, apoptosis was detected, and the IC50 value was calculated. The inhibitory activity of the compounds against TYK2 kinase was evaluated based on the IC50 value.
(§1) The tested compounds, powder and stored at room temperature, were prepared into 10 mM stock solution with DMSO and stored at −20° C. away from light for use.
Compounds were prepared into dilute solutions which was 1000 times of the final concentration. The compound was prepared into 20-times of the final concentration by diluting the compound with culture medium. 2 ul of 1000-times compound was added to per well to 98 ul of culture medium.
(§2) Cells (provided by Sundia Pharmaceutical Technology (Shanghai) Co., Ltd.) were resuspended and counted using an automated cell counter. The cell suspension was diluted to the desired density based on BaF3 seeding density of 2000 cells per well. Each well was plated with 95 ul of cells and incubated at 37° C. for stable equilibrium. 5 ul of 20-times compound was added to each well, with the wells to which the same volume of DMSO was added as a control.
The cell plate was equilibrated to room temperature. 40 ul CellTiter-Glo® Reagent was added to each well, shaken for 2 minutes and allowed to stand for 10 minutes. Detected with SpectraMax Paradigm.
• (1) IC50 was calculated using GraphPad Prism 5. • (2) % Inh=(Max signal−Compound signal)/(Max signal−Min signal)×100. • (3) Max signal was the positive control well with only the same volume of DMSO as the compound. • (4) Min signal was the negative control well with only the culture medium.

TYK2 [2] = target: T1, TYK2; assay: JAK family kinase selectivity assay, Ba/F3-FL-TYK2-E957D cell proliferation; settings: 72 h
Text: (§3) There are four kinases in the JAK family, respectively TYK2, JAK1, JAK2 and JAK3. JAK family kinase genes were introduced into the wild-type murine B lymphocytes (BaF3), and four BaF3 engineered cell lines were constructed respectively (Ba/F3-FL-TYK2-E957D, Ba/F3-TEL-JAK1, Ba/F3-TEL-JAK2, Ba/F3-TEL-JAK3). The growth and proliferation of these engineered cell lines were not dependent on IL-3, but on exogenously transferred JAK family kinases.
In this experiment, the inhibitory effects of the compounds on the proliferation of four cell types, Ba/F3-FL-TYK2-E957D, Ba/F3-TEL-JAK1, Ba/F3-TEL-JAK2, and Ba/F3-TEL-JAK3 were tested, and apoptosis was detected, and the IC50 values were calculated. The inhibitory activities of the compounds against TYK2, JAK1, JAK2, and JAK3 kinases were evaluated based on the IC50 value, thus assessing the JAK family kinase selectivity of the compounds. […]
Cells (provided by Sundia Pharmaceutical Technology (Shanghai) Co., Ltd.) were resuspended and counted using an automated cell counter. […]
(§4) The cell plate was equilibrated to room temperature. […] Detected with SpectraMax Paradigm.
(§5) • (1) IC50 was calculated using GraphPad Prism 5. • (2) % Inh=(Max signal-Compound signal)/(Max signal-Min signal)×100. • (3) Max signal was the positive control well with only the same volume of DMSO as the compound. • (4) Min signal was the negative control well with only the culture medium.

JAK3 = target: T2, JAK3 (Homo sapiens, UniProt P52333, cells depend on it, form not given); assay: JAK family kinase selectivity assay, Ba/F3-TEL-JAK3 cell proliferation; settings: Ba/F3-TEL-JAK3, 72 h; read-out: Ba/F3 Cell IC50 JAK3
T2 construct: fused on or other part: N-terminal part of TEL (ETV6) as oligomerising partner; P41212 (Transcription factor ETV6)
T2 sequence (P52333 822-1111 limits assumed, change not shown): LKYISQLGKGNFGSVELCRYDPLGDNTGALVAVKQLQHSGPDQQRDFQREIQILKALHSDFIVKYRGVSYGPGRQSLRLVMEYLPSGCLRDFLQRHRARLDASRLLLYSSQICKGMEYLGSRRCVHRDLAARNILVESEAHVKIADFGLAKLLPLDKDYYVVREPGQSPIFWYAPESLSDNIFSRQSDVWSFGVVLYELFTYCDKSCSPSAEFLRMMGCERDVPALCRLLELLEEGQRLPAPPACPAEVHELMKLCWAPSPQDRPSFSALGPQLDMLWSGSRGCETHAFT
Text: as §3
In this experiment, the inhibitory effects of the compounds on the proliferation of four cell types, Ba/F3-FL-TYK2-E957D, Ba/F3-TEL-JAK1, Ba/F3-TEL-JAK2, and Ba/F3-TEL-JAK3 were tested, and apoptosis was detected, and the IC50 values were calculated. The inhibitory activities of the compounds against TYK2, JAK1, JAK2, and JAK3 kinases were evaluated based on the IC50 value, thus assessing the JAK family kinase selectivity of the compounds.
as §1
Compounds were formulated into dilute solutions which was 1000 times of the final concentration. The compound was prepared into 20-times of final concentration by diluting the compound with culture medium. 2 ul of 1000-times compound was added per well to 98 ul of culture medium.
as §2, with “5 ul of 20-times compound was added to each well, with the wells to which the same volume of DMSO was added as a control.” left out
as §4, §5

[3] = system: IFN-α-induced STAT phosphorylation; assay: IFN-α-induced STAT phosphorylation in human whole blood; settings: for higher anti-inflammatory activity compared to the control BMS-986165: IFN-α-induced STAT phosphorylation in human whole blood, relative to BMS-986165; for IC50: human whole blood, 20 ng/ml IFN-α, pSTAT5 in CD3-positive cells, read-out: IC50, IFN-α inflammatory pathway (IFN-α-induced STAT phosphorylation)
Text: The cytokine receptor attached to TYK2 mediates the signaling of type 1 interferon (IFN-α), which has been identified as the most important inflammatory factor of the autoimmune system. Human whole blood is induced with IFN-α, and TYK2 from lymphocytes in whole blood triggered STAT phosphorylation, which mediated subsequent inflammatory signaling. Therefore, TYK2 inhibitors have an inhibitory effect on IFN-α signaling, and the stronger the TYK2 inhibitory activity, the lower the level of STAT phosphorylation, and the stronger the corresponding anti-inflammatory effect.
In this experiment, the ability of the compounds to inhibit IFN-α-induced STAT phosphorylation in human whole blood were tested, and the IC50 values were calculated. The anti-inflammatory activity of the compounds was evaluated at the tissue level and evaluation of the inhibitory activity of compounds on the IFN-α inflammatory pathway based on the IC50 value.
The tested compound, powder and stored at room temperature, prepared into 10 mM stock solution with DMSO and stored at −80° C. in the refrigerator.
1× Fix/Lysis solution preparation: 5× Fix/Lysis and ddH2O were diluted according to 1:4 and preheated in 37° C. incubator, waiting for use.
Flow cytometric staining buffer preparation: 1 g of bovine serum albumin (BSA) and 1 mL of EDTA (0.5 M) solution were added to 500 mL of phosphate buffer solution (PBS) and stored at 4° C. in the refrigerator.
Compound dilution solution: 0.5 g of bovine serum albumin (BSA) was added to 500 mL of phosphate buffer solution (PBS), and stored at 4° C. in the refrigerator.
50 μg/mL IFN-alpha was diluted to 400 ng/mL with Compound Diluent and set aside.
67.5 μL of human whole blood was added to a 96-well plate using a 300 μL electric volley gun. 3.5 μL of prepared test compound was added, mixed well and placed in the cell culture incubator. After 60 min incubation, 400 ng/mL IFN-α (Biolegend 592702, final concentration 20 ng/ml) was added. The obtained was mixed well and placed in the cell culture incubator to continue incubation for 15 min.
After cytokine stimulation, 5 ul of PE-CD3 (BD 555333) antibody was added to each well, mixed and incubation was continued at 4° C. in the refrigerator. At the end, whole blood was transferred to a 96-well deep-well plate using a volley gun, pre-warmed 1× Fix/Lysis solution was added, and cells were lysed and fixed for 12 minutes at 37° C. in an incubator. After being washed, 400 μL of Perm III solution was added, vortexed and incubated on ice for 30 minutes. Cells were then stained by 100 μL of APC-pSTAT5 (1:100) antibody for 50 min at room temperature. This was followed by flow-through instrumentation. The expression of pSTAT5 was quantified by median fluorescence intensity after gating the CD3-positive signaling cluster.

IC50 (TYK2 [1]) | IC50 (TYK2 [2]) | GI50 (JAK3) | IC50 [3] | SMILES | higher anti-inflammatory activity compared to the control BMS-986165 [3]
0.6 nM | 0.6 nM | > 1000 nM | 4 nM | [2H]C([2H])([2H])NC(=O)c1nnc(NC(=O)C2CC2)cc1Nc1nc(N)c(Cl)cc1[S@@](C)(=O)=NC [Example 28] | about 6 fold
1.1 nM | 1.1 nM | > 1000 nM | 3.7 nM | [2H]C([2H])([2H])NC(=O)c1nnc(NC(=O)C2CC2)cc1Nc1nc(N)c(Cl)cc1[S@](C)(=N)=O [Example 29, (R)-4-((6-amino-5-chloro-3-(S-methylsulfoximino)pyridin-2-yl)amino)-6-(cyclopropylcarboxamido)-N-(methyl-d3)pyridazine-3-carboxamide] | about 6 fold
